Measurements as given in patent US9561228B2 (Celgene Avilomics Research, Inc., priority 2013, dated 2017).

Key:
[1] = system: ERK1/2 phosphorylation of p90RSK in HCT116 cells; assay: Detection of total and phospho-RSK by MSD ELISA (HCT116); assay type: cell-based; settings: Homo sapiens, HCT-116, read-out: ERK1/ERK2 PRSK HCT116 EC50
Outline: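 HCT116 cells treated with compound in RPMI/10% FBS for 2 h at 37° C, then lysed. Phospho-RSK (Ser380) and total RSK in lysates measured by MSD sandwich electrochemiluminescence ELISA as a readout of ERK1/2 activity.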

Erk1 = target: T1, Erk1 (Homo sapiens, UniProt P27361); assay: Protein Mass Modification Assay (intact protein MALDI, 60 min, 10-fold excess of compound); assay type: binding
T1 construct: purchased Millipore 14-439
T1 sequence (P27361 whole entry): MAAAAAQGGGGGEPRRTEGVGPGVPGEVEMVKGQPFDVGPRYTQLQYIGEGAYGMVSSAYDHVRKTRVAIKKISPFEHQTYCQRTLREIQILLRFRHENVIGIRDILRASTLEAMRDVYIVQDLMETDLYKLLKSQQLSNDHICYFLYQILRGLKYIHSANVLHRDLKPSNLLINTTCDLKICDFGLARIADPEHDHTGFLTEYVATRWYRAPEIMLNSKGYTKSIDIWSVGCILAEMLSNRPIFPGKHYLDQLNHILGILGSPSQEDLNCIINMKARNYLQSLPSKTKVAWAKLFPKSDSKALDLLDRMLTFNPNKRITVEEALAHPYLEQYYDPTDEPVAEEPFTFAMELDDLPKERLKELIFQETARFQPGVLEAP
Outline: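 Human Erk1 was incubated 60 min at room temperature with a 10-fold molar excess of compound, then analysed as intact protein by MALDI with sinapinic acid matrix. The centroid mass shift versus untreated protein was divided by compound molecular weight to give percent modified protein.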

[2] = system: ERK1/2 phosphorylation of p90RSK in HT29 cells; assay: pRSK MSD Assay in HT29 cells; assay type: cell-based; settings: Homo sapiens, HT-29, read-out: ERK1/ERK2 PRSK MSD HT29 EC50
Outline: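 Serum-starved HT29 cells (0.1% FBS overnight) treated with test compound for 120 min at 37° C, then lysed with protease and phosphatase inhibitors. Phospho-p90RSK quantified by MSD sandwich immunoassay: RSK capture antibody, phospho-RSK detection antibody plus Sulfo-tagged antibody, electrochemiluminescence read.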

| Structure (SMILES) | EC50 [1] [µM] | ERK1 Mass Mod (%) (Erk1) | EC50 [2] [µM] |
| --- | --- | --- | --- |
| C=CC(=O)Nc1ccccc1Nc1nc(Nc2cc(OC)nc(N3CCN(C(C)=O)CC3)c2)ncc1C(F)(F)F [Compound I-92] | < 0.1 | E (a mass modification of ≧70%) | – |
| C=CC(=O)Nc1cc(OCC(=O)N2CCN(C(C)=O)CC2)ccc1Nc1nc(Nc2cc(OC)ncc2OC)ncc1C(F)(F)F [Compound I-415, N-(5-(2-(4-acetylpiperazin-1-yl)-2-oxoethoxy)-2-((2-((2,5-dimethoxypyridin-4-yl)amino)-5-(trifluoromethyl)pyrimidin-4-yl)amino)phenyl)acrylamide] | 0.101 to 0.5 | – | 0.501 to 0.999 |
| C=CC(=O)Nc1cc(CN2CCN(C(C)=O)C[C@@H]2C)ccc1Nc1nc(Nc2cc(OC)ncc2C)ncc1C(F)(F)F [Compound I-421, (S)—N-(5-((4-acetyl-2-methylpiperazin-1-yl)methyl)-2-((2-((2-methoxy-5-methylpyridin-4-yl)amino)-5-(trifluoromethyl)pyrimidin-4-yl)amino)phenyl)acrylamide] | 0.101 to 0.5 | – | 0.101 to 0.5 |
| C=CC(=O)Nc1cc(C)ccc1Nc1nc(Nc2cc(OC)nc(OC)c2)ncc1C(F)(F)F [Compound I-96] | – | E (key: E: a mass modification of ≧70%; F: a mass modification of 31-69%; G: a mass modification ≦30%) | – |
| C=CC(=O)Nc1cc(OC(F)(F)F)ccc1Nc1nc(Nc2cc(OC)ncc2C)ncc1C(F)(F)F [Compound I-407, N-(2-((2-((2-methoxy-5-methylpyridin-4-yl)amino)-5-(trifluoromethyl)pyrimidin-4-yl)amino)-5-(trifluoromethoxy)phenyl)acrylamide] | 0.101 to 0.5 | – | < 0.1 |
| C=CC(=O)Nc1cc(O[C@@H](C)C(=O)N2CCN(S(C)(=O)=O)CC2)ccc1Nc1nc(Nc2cc(OC)ncc2C)ncc1C(F)(F)F [Compound I-426, (S)—N-(2-((2-((2-methoxy-5-methylpyridin-4-yl)amino)-5-(trifluoromethyl)pyrimidin-4-yl)amino)-5-((1-(4-(methylsulfonyl)piperazin-1-yl)-1-oxopropan-2-yl)oxy)phenyl)acrylamide] | 0.101 to 0.5 | – | < 0.1 |
| C=CC(=O)Nc1cc(O[C@@H](C)C(N)=O)ccc1Nc1nc(Nc2cc(OC)ncc2C)ncc1C(F)(F)F [Compound I-412, (S)—N-(5-((1-amino-1-oxopropan-2-yl)oxy)-2-((2-((2-methoxy-5-methylpyridin-4-yl)amino)-5-(trifluoromethyl)pyrimidin-4-yl)amino)phenyl)acrylamide] | 0.101 to 0.5 | – | > 1 |
| C=CC(=O)Nc1c(Nc2nc(Nc3cc(OC)ncc3C)ncc2OC)cccc1OCc1nccs1 [Compound I-411, N-(2-((5-methoxy-2-((2-methoxy-5-methylpyridin-4-yl)amino)pyrimidin-4-yl)amino)-6-(thiazol-2-ylmethoxy)phenyl)acrylamide] | > 1 | – | > 1 |
| C=CC(=O)Nc1cc(O[C@@H](C)C(=O)N2CCN(C(C)=O)CC2)ccc1Nc1nc(Nc2cc(OC)ncc2C)ncc1C(F)(F)F [Compound I-425, (S)—N-(5-((1-(4-acetylpiperazin-1-yl)-1-oxopropan-2-yl)oxy)-2-((2-((2-methoxy-5-methylpyridin-4-yl)amino)-5-(trifluoromethyl)pyrimidin-4-yl)amino)phenyl)acrylamide] | 0.501 to 0.999 | – | 0.101 to 0.5 |
| C=CC(=O)Nc1cc(C)ccc1Nc1nc(Nc2cc(C(=O)NC)nn2C)ncc1C(F)(F)F [Compound I-424, 5-((4-((2-acrylamido-4-methylphenyl)amino)-5-(trifluoromethyl)pyrimidin-2-yl)amino)-N,1-dimethyl-1H-pyrazole-3-carboxamide] | 0.101 to 0.5 | – | 0.101 to 0.5 |
| C=CC(=O)Nc1cc(CN2CCN(C(C)=O)C[C@H]2C)ccc1Nc1nc(Nc2cc(OC)ncc2C)ncc1C(F)(F)F [Compound I-422, (R)—N-(5-((4-acetyl-2-methylpiperazin-1-yl)methyl)-2-((2-((2-methoxy-5-methylpyridin-4-yl)amino)-5-(trifluoromethyl)pyrimidin-4-yl)amino)phenyl)acrylamide] | < 0.1 | – | 0.101 to 0.5 |
| C=CC(=O)Nc1cc(O[C@H](C)C(=O)N2CCN(C(C)=O)CC2)ccc1Nc1nc(Nc2cc(OC)ncc2C)ncc1C(F)(F)F [Compound I-409, (R)—N-(5-((1-(4-acetylpiperazin-1-yl)-1-oxopropan-2-yl)oxy)-2-((2-((2-methoxy-5-methylpyridin-4-yl)amino)-5-(trifluoromethyl)pyrimidin-4-yl)amino)phenyl)acrylamide] | 0.501 to 0.999 | – | 0.501 to 0.999 |
| C=CC(=O)Nc1cc(CN2CCN(C(=O)c3ccccn3)CC2)ccc1Nc1nc(Nc2cc(OC)ncc2C)ncc1C(F)(F)F [Compound I-388, N-(2-((2-((2-methoxy-5-methylpyridin-4-yl)amino)-5-(trifluoromethyl)pyrimidin-4-yl)amino)-5-((4-picolinoylpiperazin-1-yl)methyl)phenyl)acrylamide] | < 0.1 | – | < 0.1 |
| C=CC(=O)Nc1cc(C)ccc1Nc1nc(Nc2cc(C(C)=O)ccc2C)ncc1C(F)(F)F [Compound I-84, N-(2-((2-((5-Acetyl-2-methylphenyl)amino)-5-(trifluoromethyl)pyrimidin-4-yl)amino)-5-methylphenyl)acrylamide] | – | E (key: E: a mass modification of ≧70%; F: a mass modification of 31-69%; G: a mass modification ≦30%) | < 0.1 |
| C=CC(=O)Nc1cc(CN2CCN(C(=O)c3ccccn3)CC2)ccc1Nc1nc(Nc2nc(OC)ncc2C)ncc1C(F)(F)F [Compound I-391, N-(2-((2-((2-methoxy-5-methylpyrimidin-4-yl)amino)-5-(trifluoromethyl)pyrimidin-4-yl)amino)-5-((4-picolinoylpiperazin-1-yl)methyl)phenyl)acrylamide] | 0.101 to 0.5 | – | 0.101 to 0.5 |
| C=CC(=O)Nc1cc(C)ccc1Nc1nc(Nc2cc(OC)ncc2CC)ncc1C(F)(F)F [Compound I-408, N-(2-((2-((5-ethyl-2-methoxypyridin-4-yl)amino)-5-(trifluoromethyl)pyrimidin-4-yl)amino)-5-methylphenyl)acrylamide] | 0.501 to 0.999 | – | 0.101 to 0.5 |
| C=CC(=O)Nc1cc(C)ccc1Nc1nc(NC2COC2)ncc1C(F)(F)F [Compound I-420, N-(5-methyl-2-((2-(oxetan-3-ylamino)-5-(trifluoromethyl)pyrimidin-4-yl)amino)phenyl)acrylamide] | > 1 | – | > 1 |
| C=CC(=O)Nc1cc(OCCN2CCN(C(C)=O)CC2)ccc1Nc1nc(Nc2cc(OC)ncc2C)ncc1C(F)(F)F [Compound I-416, N-(5-(2-(4-acetylpiperazin-1-yl)ethoxy)-2-((2-((2-methoxy-5-methylpyridin-4-yl)amino)-5-(trifluoromethyl)pyrimidin-4-yl)amino)phenyl)acrylamide] | 0.101 to 0.5 | – | 0.101 to 0.5 |
| C=CC(=O)Nc1cc(C)ccc1Nc1nc(Nc2cc(C(=O)OC)nn2C)ncc1C(F)(F)F [Compound I-418, Methyl 5-((4-((2-acrylamido-4-methylphenyl)amino)-5-(trifluoromethyl)pyrimidin-2-yl)amino)-1-methyl-1H-pyrazole-3-carboxylate] | 0.101 to 0.5 | – | 0.501 to 0.999 |
| C=CC(=O)Nc1cc(CCc2cnn(C)c2)ccc1Nc1nc(Nc2cc(OC)ncc2C)ncc1C(F)(F)F [Compound I-427, N-(2-((2-((2-methoxy-5-methylpyridin-4-yl)amino)-5-(trifluoromethyl)pyrimidin-4-yl)amino)-5-(2-(1-methyl-1H-pyrazol-4-yl)ethyl)phenyl)acrylamide] | 0.501 to 0.999 | – | 0.101 to 0.5 |
| C=CC(=O)Nc1cc(C)ccc1Nc1nc(Nc2cc(C(N)=O)nn2C)ncc1C(F)(F)F [Compound I-423, 5-((4-((2-acrylamido-4-methylphenyl)amino)-5-(trifluoromethyl)pyrimidin-2-yl)amino)-1-methyl-1H-pyrazole-3-carboxamide] | > 1 | – | > 1 |
| C=CC(=O)Nc1cc(C)ccc1Nc1nc(Nc2cc(C(F)(F)F)nn2C)ncc1C(F)(F)F [Compound I-419, N-(5-methyl-2-((2-((1-methyl-3-(trifluoromethyl)-1H-pyrazol-5-yl)amino)-5-(trifluoromethyl)pyrimidin-4-yl)amino)phenyl)acrylamide] | > 1 | – | > 1 |
| C=CC(=O)Nc1cc(C)ccc1Nc1nc(NCC2COC2)ncc1C(F)(F)F [Compound I-417, N-(5-methyl-2-((2-((oxetan-3-ylmethyl)amino)-5-(trifluoromethyl)pyrimidin-4-yl)amino)phenyl)acrylamide] | > 1 | – | > 1 |
| C=CC(=O)Nc1cc(O[C@H](C)C(=O)N2CCN(S(C)(=O)=O)CC2)ccc1Nc1nc(Nc2cc(OC)ncc2C)ncc1C(F)(F)F [Compound I-410, (R)—N-(2-((2-((2-methoxy-5-methylpyridin-4-yl)amino)-5-(trifluoromethyl)pyrimidin-4-yl)amino)-5-((1-(4-(methylsulfonyl)piperazin-1-yl)-1-oxopropan-2-yl)oxy)phenyl)acrylamide] | 0.101 to 0.5 | – | 0.101 to 0.5 |
| C=CC(=O)Nc1cc(O[C@H](C)C(N)=O)ccc1Nc1nc(Nc2cc(OC)ncc2C)ncc1C(F)(F)F [Compound I-413, (R)—N-(5-((1-amino-1-oxopropan-2-yl)oxy)-2-((2-((2-methoxy-5-methylpyridin-4-yl)amino)-5-(trifluoromethyl)pyrimidin-4-yl)amino)phenyl)acrylamide] | < 0.1 | – | < 0.1 |
